According to patent publication US9975907B2, “Pyrimidinones as PI3K inhibitors” (Incyte Corporation, priority 2009, dated 2018):

How the values were obtained:
PI3Kδ (p110δ/p85α) = PI3Kδ (p110δ/p85α) (Homo sapiens (Human), UniProt O00329); experiment: AlphaScreen Assay for PI3Kδ (Assay A1); assay type: biochemical; conditions: column a, 20 μM ATP
Source text: PI3-Kinase luminescent assay kit including lipid kinase substrate, D-myo-phosphatidylinositol 4,5-bisphosphate (PtdIns(4,5)P2)D (+)-sn-1,2-di-O-octanoylglyceryl, 3-O-phospho linked (PIP2), biotinylated I(1,3,4,5)P4, PI(3,4,5)P3 Detector Protein, was purchased from Echelon Biosciences (Salt Lake City, Utah). AlphaScreen™ GST Detection Kit including donor and acceptor beads was purchased from PerkinElmer Life Sciences (Waltham, Mass.). PI3Kδ (p110δ/p85α) was purchased from Millipore (Bedford, Mass.). ATP, MgCb, DTT, EDTA, HEPES and CHAPS were purchased from Sigma-Aldrich (St. Louis, Mo.).
AlphaScreen™ Assay for PI3Kδ
The kinase reaction was conducted in 384-well REMP plate from Thermo Fisher Scientific in a final volume of 40 μL. Inhibitors were first diluted serially in DMSO and added to the plate wells before the addition of other reaction components. The final concentration of DMSO in the assay was 2%. The PI3K assays were carried out at room temperature in 50 mM HEPES, pH 7.4, 5 mM MgCl2, 50 mM NaCl, 5 mM DTT and CHAPS 0.04%. Reactions were initiated by the addition of ATP, the final reaction mixture consisted of 20 μM PIP2, 20 μM ATP, 1.2 nM PI3Kδ were incubated for 20 min. 10 μL of reaction mixture was then transferred to 5 μL 50 nM biotinylated I(1,3,4,5)P4 in quench buffer: 50 mM HEPES pH 7.4, 150 mM NaCl, 10 mM EDTA, 5 mM DTT, 0.1% Tween-20, followed with the addition of 10 μL AlphaScreen™ donor and acceptor beads suspended in quench buffer containing 25 nM PI(3,4,5)P3 detector protein. The final concentration of both donor and acceptor beads is […]. After plate sealing, the plate was incubated in a dark location at room temperature for 2 hours. The activity of the product was determined on Fusion-alpha microplate reader (Perkin-Elmer). IC50 determination was performed by fitting the curve of percent control activity versus the log of the inhibitor concentration using the GraphPad Prism 3.0 software.

PI3Kα = PI3Kα (Homo sapiens (Human), UniProt P42336); experiment: PI3K Enzyme Assay A2 ([γ-33P]ATP filter plate), PI3Kα; assay type: biochemical; conditions: Assay A2, 1000 μM ATP
Protocol: Materials: Lipid kinase substrate, phosphoinositol-4,5-bisphosphate (PIP2), was purchased from Echelon Biosciences (Salt Lake City, Utah). PI3K isoforms α, β, δ and γ were purchased from Millipore (Bedford, Mass.). ATP, MgCh, DTT, EDTA, MOPS and CHAPS were purchased from Sigma-Aldrich (St. Louis, Mo.). The kinase reaction was conducted in clear-bottom 96-well plate from Thermo Fisher Scientific in a final volume of 24 μL. Inhibitors were first diluted serially in DMSO and added to the plate wells before the addition of other reaction components. The final concentration of DMSO in the assay was 0.5%. The PI3K assays were carried out at room temperature in 20 mM MOPS, pH 6.7, 10 mM MgCl2, 5 mM DTT and CHAPS 0.03%. The reaction mixture was prepared containing 50 μM PIP2, kinase and varying concentration of inhibitors. Reactions were initiated by the addition of ATP containing 2.2 μCi [γ-^33P]ATP to a final concentration of 1000 μM. […] Reactions were incubated for 180 min and terminated by the addition of 100 μL of 1 M potassium phosphate pH 8.0, 30 mM EDTA quench buffer. A 100 μL aliquot of the reaction solution was then transferred to 96-well Millipore MultiScreen IP 0.45 μm PVDF filter plate (The filter plate was prewetted with 200 μL 100% ethanol, distilled water, and 1 M potassium phosphate pH 8.0, respectively). The filter plate was aspirated on a Millipore Manifold under vacuum and washed with 18×200 μL wash buffer containing 1 M potassium phosphate pH 8.0 and 1 mM ATP. After drying by aspiration and blotting, the plate was air dried in an incubator at 37° C. overnight. Packard TopCount adapter (Millipore) was then attached to the plate followed with addition of 120 μL Microscint 20 scintillation cocktail (Perkin Elmer) in each well. After the plate sealing, the radioactivity of the product was determined by scintillation counting on Topcount (Perkin-Elmer). IC50 determination was performed by fitting the curve of percent control activity versus the log of the inhibitor concentration using the GraphPad Prism 3.0 software.

Chain of PI3Kα (P42336 whole entry, species assumed, canonical isoform): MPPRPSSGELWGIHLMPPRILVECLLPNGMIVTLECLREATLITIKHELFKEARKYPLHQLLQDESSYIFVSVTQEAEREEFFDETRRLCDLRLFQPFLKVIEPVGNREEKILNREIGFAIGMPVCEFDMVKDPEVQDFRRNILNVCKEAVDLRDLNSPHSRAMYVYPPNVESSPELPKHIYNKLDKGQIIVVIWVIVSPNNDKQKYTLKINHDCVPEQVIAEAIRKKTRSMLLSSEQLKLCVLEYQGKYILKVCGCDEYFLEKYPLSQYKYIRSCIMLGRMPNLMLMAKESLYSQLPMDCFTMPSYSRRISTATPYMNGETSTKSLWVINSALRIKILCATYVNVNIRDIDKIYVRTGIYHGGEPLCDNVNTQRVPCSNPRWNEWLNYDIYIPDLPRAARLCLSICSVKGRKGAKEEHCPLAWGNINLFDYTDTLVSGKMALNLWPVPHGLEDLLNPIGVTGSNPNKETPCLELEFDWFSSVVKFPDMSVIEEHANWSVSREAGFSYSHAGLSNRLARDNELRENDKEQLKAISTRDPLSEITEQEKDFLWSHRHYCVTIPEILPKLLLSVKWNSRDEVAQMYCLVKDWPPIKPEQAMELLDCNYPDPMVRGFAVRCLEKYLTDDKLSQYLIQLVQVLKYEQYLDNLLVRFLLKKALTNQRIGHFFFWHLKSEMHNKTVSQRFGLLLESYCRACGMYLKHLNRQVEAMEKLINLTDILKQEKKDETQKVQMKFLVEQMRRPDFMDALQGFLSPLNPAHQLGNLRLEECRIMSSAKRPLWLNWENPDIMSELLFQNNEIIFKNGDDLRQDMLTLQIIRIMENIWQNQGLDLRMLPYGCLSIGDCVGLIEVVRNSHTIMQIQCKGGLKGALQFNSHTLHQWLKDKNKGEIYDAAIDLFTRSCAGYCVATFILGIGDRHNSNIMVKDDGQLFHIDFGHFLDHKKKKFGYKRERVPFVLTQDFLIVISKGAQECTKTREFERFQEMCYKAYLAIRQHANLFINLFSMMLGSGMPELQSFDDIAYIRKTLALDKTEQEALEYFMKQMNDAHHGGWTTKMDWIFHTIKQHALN
Chain of PI3Kα (P27986 whole entry partner, species assumed, canonical isoform): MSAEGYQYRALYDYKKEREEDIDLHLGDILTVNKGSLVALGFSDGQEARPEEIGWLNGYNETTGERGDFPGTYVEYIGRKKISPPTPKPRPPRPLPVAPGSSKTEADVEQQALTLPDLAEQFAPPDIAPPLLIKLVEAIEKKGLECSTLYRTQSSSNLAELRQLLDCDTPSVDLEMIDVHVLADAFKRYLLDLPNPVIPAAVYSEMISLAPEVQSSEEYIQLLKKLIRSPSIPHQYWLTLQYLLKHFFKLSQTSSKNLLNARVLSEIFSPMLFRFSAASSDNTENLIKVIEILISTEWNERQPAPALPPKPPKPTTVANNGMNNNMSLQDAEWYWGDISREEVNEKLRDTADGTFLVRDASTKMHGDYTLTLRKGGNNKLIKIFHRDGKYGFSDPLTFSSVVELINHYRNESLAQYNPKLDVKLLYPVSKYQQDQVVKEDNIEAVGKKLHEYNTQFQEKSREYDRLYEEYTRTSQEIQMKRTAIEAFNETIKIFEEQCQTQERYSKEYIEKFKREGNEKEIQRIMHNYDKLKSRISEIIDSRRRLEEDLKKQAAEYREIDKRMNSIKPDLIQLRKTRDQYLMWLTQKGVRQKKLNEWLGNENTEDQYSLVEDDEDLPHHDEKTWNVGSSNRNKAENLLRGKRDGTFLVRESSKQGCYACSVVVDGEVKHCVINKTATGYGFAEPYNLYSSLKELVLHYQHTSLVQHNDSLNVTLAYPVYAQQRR
Chain of PI3Kδ (p110δ/p85α) (O00329 whole entry, species assumed): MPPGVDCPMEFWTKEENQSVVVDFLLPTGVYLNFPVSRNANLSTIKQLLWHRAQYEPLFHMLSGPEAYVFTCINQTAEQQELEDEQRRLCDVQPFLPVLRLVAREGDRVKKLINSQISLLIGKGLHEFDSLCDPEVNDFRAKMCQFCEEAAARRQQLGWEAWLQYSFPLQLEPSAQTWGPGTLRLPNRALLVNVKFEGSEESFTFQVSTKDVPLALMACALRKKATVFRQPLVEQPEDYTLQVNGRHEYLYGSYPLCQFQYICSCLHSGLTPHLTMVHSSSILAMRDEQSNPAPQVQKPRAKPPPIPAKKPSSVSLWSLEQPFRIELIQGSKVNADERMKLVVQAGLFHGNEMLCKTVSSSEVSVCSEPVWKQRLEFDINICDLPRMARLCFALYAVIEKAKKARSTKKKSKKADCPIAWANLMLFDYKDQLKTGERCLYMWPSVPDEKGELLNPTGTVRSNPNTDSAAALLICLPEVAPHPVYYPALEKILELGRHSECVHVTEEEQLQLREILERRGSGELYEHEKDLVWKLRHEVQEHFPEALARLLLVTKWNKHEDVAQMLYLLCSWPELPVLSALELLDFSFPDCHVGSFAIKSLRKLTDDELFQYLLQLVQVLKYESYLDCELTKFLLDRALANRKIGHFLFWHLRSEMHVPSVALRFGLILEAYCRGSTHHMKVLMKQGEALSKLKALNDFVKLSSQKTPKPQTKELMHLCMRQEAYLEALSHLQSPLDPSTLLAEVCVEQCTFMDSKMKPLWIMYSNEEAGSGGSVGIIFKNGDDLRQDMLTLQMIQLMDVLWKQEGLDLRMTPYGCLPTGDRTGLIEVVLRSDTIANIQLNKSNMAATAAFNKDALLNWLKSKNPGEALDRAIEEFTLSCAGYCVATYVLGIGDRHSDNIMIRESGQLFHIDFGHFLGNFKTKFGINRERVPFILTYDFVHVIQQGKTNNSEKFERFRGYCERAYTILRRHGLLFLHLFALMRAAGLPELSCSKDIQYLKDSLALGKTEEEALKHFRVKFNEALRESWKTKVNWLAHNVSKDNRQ
Chain of PI3Kδ (p110δ/p85α) (P27986 whole entry partner, species assumed): as the sequence (P27986 whole entry partner, species assumed, canonical isoform) above

Row | IC50 (PI3Kδ (p110δ/p85α)) | IC50 (PI3Kα) | SMILES
1 | < 50 nM | > 500 nM | Cc1csc2nc(C(C)Nc3nc(N)nc4[nH]cnc34)c(-c3cc(F)cc(F)c3)c(=O)n12 (stereo not drawn) [Example 13, 7-{1-[(2-amino-9H-purin-6-yl)amino]ethyl}-6-(3,5-difluorophenyl)-3-methyl-5H-[1,3]thiazolo[3,2-a]pyrimidin-5-one]
2 | < 50 nM | > 500 nM | Cc1csc2nc(C(C)Nc3nc(N)nc4[nH]cnc34)c(-c3cccc(F)c3)c(=O)n12 (stereo not drawn) [Example 11, 7-{1-[(2-amino-9H-purin-6-yl)amino]ethyl}-6-(3-fluorophenyl)-3-methyl-5H-[1,3]thiazolo[3,2-a]pyrimidin-5-one]
3 | < 50 nM | > 500 nM | Cc1csc2nc(C(C)Nc3nc(N)nc4[nH]cnc34)c(-c3ccccc3)c(=O)n12 (stereo not drawn) [Example 9, 7-{1-[(2-amino-9H-purin-6-yl)amino]ethyl}-3-methyl-6-phenyl-5H-[1,3]thiazolo[3,2-a]pyrimidin-5-one]
